Laboratory results from patent publication US11952611B2, “Methods and systems for detection of antibiotic resistance” (Laboratory Corporation of America Holdings, priority 2017, dated 2024).
Read-outs that look alike come from different tables or passages of the source.

Key:
MRSA = assay: Recombinant phage luciferase assay, oxacillin vs cefoxitin (Table 1), MRSA strains; type: cell-based, Staphylococcus aureus
Description: (§1) Bacterial strains were serially diluted to approximately 1×10^3 CFU/mL and transferred to a 96-well plate at 135 μL per well. 15 μL of oxacillin or cefoxitin were added to the wells to reach a final concentration of 1.0 μg/mL or 2.0 μg/mL of oxicillin or 2.0 μg/mL, 4.0 μg/mL, 8.0 μg/mL, or 10.0 μg/mL of cefoxitin. The plate was then sealed and incubated at 37° C. for 2 hours. 10 μL of recombinant phage (1.6×10^8 pfu/mL) was added to each well. The plate was then re-sealed and incubated at 37° C. for 2 hours. A master mix was made containing 15 μL 5× lysis buffer, 50 μL luciferase assay buffer, and 1 μL luciferase substrate per well. 65 μL of master mix was added to each well. Luminescence from the reactions was read on a GLOMAX® Navigator and relative luminal units (RLU) for each reaction were analyzed. RLU values three times greater than an established background RLU level for LB (>750 RLU) were considered positive. The results, shown in Table 1, indicate that the recombinant phage are capable of detecting the tested bacterial strains.

MSSA = assay: Recombinant phage luciferase assay, oxacillin vs cefoxitin (Table 1), MSSA strains; type: cell-based, Staphylococcus aureus
Description: as §1

E. coli O157:H7 = type: cell-based; details: for signal reduction as compared to controls: 30 min antibiotic then 120 min phage
[1] = strain AR0463 MRSA, detected CFU 419
[2] = strain AR0465 MRSA, detected CFU 111
[3] = strain AR0472 MRSA, detected CFU 190
[4] = strain AR0476 MRSA, detected CFU 194
[5] = strain AR0481 MRSA, detected CFU 43
[6] = strain BAA-1720 MRSA, detected CFU 201
[7] = strain 12600 MSSA, detected CFU 389
[8] = strain AR0484 MSSA, detected CFU 153
[9] = strain AR0488 MSSA, detected CFU 285
[10] = strain AR0491 MSSA, detected CFU 300

For `Cc1onc(-c2ccccc2)c1C(=O)N[C@@H]1C(=O)N2[C@@H]1SC(C)(C)[C@@H]2C(=O)O` [Oxacillin, oxacillin], the “detection after incubation with oxacillin” value (MRSA; several MRSA strains) was “no detection”, the “Oxacillin (RLU) 1 ug/mL” value (MRSA; [1]) was 426 RLU and the “Oxacillin (RLU) 2 ug/mL” value (MRSA; [1]) was 353 RLU. For the same compound, the “Oxacillin (RLU) 1 ug/mL” value (MRSA; [2]) was 4944 RLU, the “Oxacillin (RLU) 2 ug/mL” value (MRSA; [2]) was 4965 RLU and the “Oxacillin (RLU) 1 ug/mL” value (MRSA; [3]) was 348 RLU. The “Oxacillin (RLU) 2 ug/mL” value (MRSA; [3]) was 281 RLU, the “Oxacillin (RLU) 1 ug/mL” value (MRSA; [4]) was 553 RLU and the “Oxacillin (RLU) 2 ug/mL” value (MRSA; [4]) was 212 RLU. For the same compound, the “Oxacillin (RLU) 1 ug/mL” value (MRSA; [5]) was 467 RLU, the “Oxacillin (RLU) 2 ug/mL” value (MRSA; [5]) was 268 RLU and the “Oxacillin (RLU) 1 ug/mL” value (MRSA; [6]) was 23810 RLU. The “Oxacillin (RLU) 2 ug/mL” value (MRSA; [6]) was 22560 RLU, the “detection after incubation with oxacillin” value (MSSA; several MSSA strains) was “no detection” and the “Oxacillin (RLU) 1 ug/mL” value (MSSA; [7]) was 1459 RLU. For the same compound, the “Oxacillin (RLU) 2 ug/mL” value (MSSA; [7]) was 697 RLU, the “Oxacillin (RLU) 1 ug/mL” value (MSSA; [8]) was 268 RLU and the “Oxacillin (RLU) 2 ug/mL” value (MSSA; [8]) was 219 RLU. The “Oxacillin (RLU) 1 ug/mL” value (MSSA; [9]) was 228 RLU, the “Oxacillin (RLU) 2 ug/mL” value (MSSA; [9]) was 198 RLU and the “Oxacillin (RLU) 1 ug/mL” value (MSSA; [10]) was 245 RLU. For the same compound, the “Oxacillin (RLU) 2 ug/mL” value (MSSA; [10]) was 221 RLU.
For `CC1(C)S[C@@H]2[C@H](NC(=O)[C@H](N)c3ccccc3)C(=O)N2[C@H]1C(=O)O` [ampicillin], the “cells resistant or sensitive” value (E. coli O157:H7) was “sensitive”, the “signal reduction as compared to controls” value (E. coli O157:H7; 10 μg/mL) was “about 100 fold” and the “signal reduction as compared to controls” value (E. coli O157:H7; 25 μg/mL) was ~1400 fold. The “signal reduction as compared to controls” value (E. coli O157:H7; 50 μg/mL) was ~2200 fold.
For `CN[C@H](CC(C)C)C(=O)N[C@H]1C(=O)N[C@@H](CC(N)=O)C(=O)N[C@H]2C(=O)N[C@H]3C(=O)N[C@H](C(=O)N[C@H](C(=O)O)c4cc(O)cc(O)c4-c4cc3ccc4O)[C@H](O)c3ccc(c(Cl)c3)Oc3cc2cc(c3O[C@@H]2O[C@H](CO)[C@@H](O)[C@H](O)[C@H]2O[C@H]2C[C@](C)(N)[C@H](O)[C@H](C)O2)Oc2ccc(cc2Cl)[C@H]1O` [vancomycin], the “cells resistant or sensitive” value (E. coli O157:H7) was “resistant” and the “signal change upon exposure” value (E. coli O157:H7; 10 μg/mL, 25 μg/mL, 50 μg/mL, or 100 μg/mL) was “signals increased”.
